Data on 22 compounds can be found in ChEMBL document CHEMBL5724709, “EUbOPEN Chemogenomics Library - IncuCyte” (2024).

Square brackets hold non-standard residues; d marks the D form. Peptide text beside a SMILES is read from it. Nle = CCCC[C@H](N)C(=O)O

Common to all, as to format: toxicity, cell-based
One series concerns HEK-293T. As to the kind of experiment: Incucyte cell viability with HEK293T. The conditions noted are these: human, 24 h, 10 µM, compound concentration 10 uM.
The subject of the next series is Fibroblast. As to the kind of experiment: Incucyte cell viability with human fibroblast. The conditions noted are these: 24 h, 10 µM, compound concentration 10 uM.
A further series concerns U2OS. As to the kind of experiment: Incucyte cell viability with U2OS. The settings on record: human, 24 h, 10 µM, compound concentration 10 uM.
Also: unitless GR value; below 1 slowed growth and below 0 cell loss.

For the compound `O=C(NO)c1cccc(C(=O)NCCc2ccccc2)c1`, the “Growth Rate” value in the series with HEK-293T (replicate number 1) is on record as 0.83; with HEK-293T (replicate number 2), 0.99; in the series on Fibroblast (replicate number 1) it was 1; with Fibroblast (replicate number 2), -0.07; with U2OS (replicate number 1), 0.02; in the series on U2OS (replicate number 2), 0.85.

Take `COc1cc(Oc2ccnc3cc(OC)c(OC)cc23)ccc1NC(=O)NC(C)c1nccs1` (centres undefined): the “Growth Rate” value is listed as 1 in the series on HEK-293T (replicate number 1); 0.18 in the series with Fibroblast (replicate number 1); -0.01 in the series on Fibroblast (replicate number 2); 0.56 with U2OS (replicate number 1); 0.82 in the series with U2OS (replicate number 2).

Turning to `CC(C)(F)C[C@H](N[C@@H](c1ccc(-c2ccc(S(C)(=O)=O)cc2)cc1)C(F)(F)F)C(=O)NC1(C#N)CC1` [ODANACATIB], the “Growth Rate” value amounted to 0.9 in the series on HEK-293T (replicate number 1); 0.87 in the series on HEK-293T (replicate number 2); 0.39 with Fibroblast (replicate number 1); 1 in the series on Fibroblast (replicate number 2); 0.65 with U2OS (replicate number 1); 1 in the series on U2OS (replicate number 2).

With `CCCC[C@@H](C=O)NC(=O)[C@H](CC(C)C)NC(=O)[C@H](CC(C)C)NC(C)=O` (Ac-Leu-Leu-[Nle]-aldehyde), the “Growth Rate” value with HEK-293T (replicate number 1) is on record as -0.02; in the series with HEK-293T (replicate number 2), 0.18; with Fibroblast (replicate number 1), 0.53; with Fibroblast (replicate number 2), 1; in the series on U2OS (replicate number 1), -0.08; in the series with U2OS (replicate number 2) it was 0.62.

With `CC(=O)O[C@]1(C(C)=O)CC[C@H]2[C@@H]3C=C(Cl)C4=CC(=O)[C@@H]5C[C@@H]5[C@]4(C)[C@H]3CC[C@@]21C` [CYPROTERONE ACETATE], the “Growth Rate” value in the series with HEK-293T (replicate number 1) was determined as 0.61; in the series with HEK-293T (replicate number 2), 0.76; in the series on Fibroblast (replicate number 1), 0.21; in the series on Fibroblast (replicate number 2), 0.15; in the series on U2OS (replicate number 1), 1; in the series with U2OS (replicate number 2), 0.72.

Turning to `C[C@]12O[C@H](C[C@]1(O)CO)n1c3ccccc3c3c4c(c5c6ccccc6n2c5c31)CNC4=O` [LESTAURTINIB], the “Growth Rate” value in the series on HEK-293T (replicate number 1) is on record as 0.16; in the series on HEK-293T (replicate number 2), 0.41; with Fibroblast (replicate number 1) it was 1; in the series on U2OS (replicate number 1), 0.59; in the series with U2OS (replicate number 2) it was 0.46.

For `Cc1cc(C(=O)N2CCN(C3CN(C(=O)c4ccc(-c5ccccc5)cc4)C3)CC2)no1`, the “Growth Rate” value in the series on HEK-293T (replicate number 1) stood at 0.61; in the series with HEK-293T (replicate number 2) it was 0.63; in the series with Fibroblast (replicate number 1), 0.37; with Fibroblast (replicate number 2), 0.27; in the series with U2OS (replicate number 1), 0.79; in the series on U2OS (replicate number 2), 1.

For `O=C([O-])CCNc1cc(N2CCc3ccccc3CC2)nc(-c2cccnc2)n1.[Na+]`, the “Growth Rate” value in the series with HEK-293T (replicate number 1) is given as 0.83; with HEK-293T (replicate number 2) it was 0.92; with Fibroblast (replicate number 1), 1; in the series on U2OS (replicate number 1) it was 0.55; in the series on U2OS (replicate number 2), 1.

For the compound `CC[C@H](C)[C@H](NC(=O)[C@H](CCC(=O)O)NC(=O)[C@@H](NC(C)=O)C(C)C)C(=O)N[C@H](C=O)CC(=O)O.O=C(O)C(F)(F)F` (Ac-VEID-aldehyde), the “Growth Rate” value turned out to be 0.64 with HEK-293T (replicate number 1); 0.97 with HEK-293T (replicate number 2); 1 with Fibroblast (replicate number 1); 0.22 in the series on Fibroblast (replicate number 2); 1 in the series with U2OS (replicate number 1).

`NC(=O)[C@H]1CCCCc2c1[nH]c1ccc(Cl)cc21`: the “Growth Rate” value in the series with HEK-293T (replicate number 1) is on record as 0.84; in the series on HEK-293T (replicate number 2), 1; with Fibroblast (replicate number 1), 1; in the series on U2OS (replicate number 1) it was 0.17; in the series with U2OS (replicate number 2), 1.

On to `CC(=O)N[C@@H](CC(=O)O)C(=O)N[C@@H](CCC(=O)O)C(=O)N[C@H](C(=O)N[C@@H](CC(=O)O)C(=O)CCl)C(C)C.O=C(O)C(F)(F)F`, for which the “Growth Rate” value in the series with HEK-293T (replicate number 1) was determined as 0.81; in the series with HEK-293T (replicate number 2), 1; with Fibroblast (replicate number 1) it was 1; with Fibroblast (replicate number 2), 0.21; in the series on U2OS (replicate number 1), 1.

Take `Cl.Cl.O=C(O)Cn1nnc(-c2ccc(CN(CCCCOc3ccc(CN4CCCC4)cc3)CCc3ccccc3)cc2)n1`: the “Growth Rate” value with HEK-293T (replicate number 1) worked out at 0.53; in the series with HEK-293T (replicate number 2), 0.89; in the series with Fibroblast (replicate number 1) it was 0.66; in the series with Fibroblast (replicate number 2) it was 1; in the series with U2OS (replicate number 1) it was 1; in the series with U2OS (replicate number 2), 0.91.

Regarding `O=C(C1CC1)N1CC[C@@H](Cc2n[nH]c(=O)n2-c2ccc(-c3ccc4occc4c3)cc2)C1`, the “Growth Rate” value came to 0.73 with HEK-293T (replicate number 1); 1 in the series with HEK-293T (replicate number 2); 0.43 in the series with Fibroblast (replicate number 1); 0 in the series with Fibroblast (replicate number 2); 0.54 with U2OS (replicate number 1); 0.69 in the series with U2OS (replicate number 2).

As for `O=S(=O)(O)c1ccc2cc(/N=N/c3cc(S(=O)(=O)O)c4cccnc4c3O)ccc2c1`, the “Growth Rate” value in the series with HEK-293T (replicate number 1) is 1; with Fibroblast (replicate number 1), 0.17; in the series on Fibroblast (replicate number 2), -0.42; in the series with U2OS (replicate number 1) it was -0.34; in the series on U2OS (replicate number 2), 1.

With `COc1ccc2nc3[nH]nc(C)c3c(NCCOCCO)c2c1`, the “Growth Rate” value with HEK-293T (replicate number 1) turned out to be 0.57; in the series with HEK-293T (replicate number 2), 0.77; in the series with Fibroblast (replicate number 1) it was 0.52; in the series with Fibroblast (replicate number 2), 0.43; in the series with U2OS (replicate number 1) it was 0.89; with U2OS (replicate number 2) it was 1.

On to `CCC(NC(=O)C(CC(C)C)NC(=O)OCc1ccccc1)C(=O)C(=O)NCCCN1CCOCC1.O=C(O)C(F)(F)F` (centres undefined), for which the “Growth Rate” value with HEK-293T (replicate number 1) is on record as 0.73; in the series with HEK-293T (replicate number 2), 0.97; with Fibroblast (replicate number 1), 1; in the series with U2OS (replicate number 1), 1.

Take `CC/C(=C(/c1ccc(/C=C/C(=O)O)cc1)c1ccc2[nH]ncc2c1)c1ccc(F)cc1Cl` [BRILANESTRANT]: the “Growth Rate” value with HEK-293T (replicate number 1) amounted to 0.82; in the series with HEK-293T (replicate number 2), 0.87; in the series on Fibroblast (replicate number 1) it was 1; with U2OS (replicate number 1), 1; in the series with U2OS (replicate number 2), 0.77.

`CC(C)C(=O)SCCCCCCC(=O)Nc1nc(-c2ccccc2)cs1`: the “Growth Rate” value with HEK-293T (replicate number 1) is on record as 0.55; in the series on Fibroblast (replicate number 1), 1; with Fibroblast (replicate number 2), -0.31; in the series with U2OS (replicate number 1), -0.42; in the series on U2OS (replicate number 2), 0.02.

Take `O=C(NO)c1cnc(NC2(c3ccccc3)CC2)nc1`: the “Growth Rate” value with HEK-293T (replicate number 1) is recorded as 0.73; in the series on HEK-293T (replicate number 2) it was 0.94; in the series with Fibroblast (replicate number 1) it was -0.29; with Fibroblast (replicate number 2), 0.31; in the series with U2OS (replicate number 1), -0.38; with U2OS (replicate number 2) it was -0.13.

Turning to `CC(C)Nc1cc(-c2c[nH]c(C(=O)N[C@H](CO)c3cccc(Cl)c3)c2)c(Cl)cn1` [ULIXERTINIB], the “Growth Rate” value with HEK-293T (replicate number 1) came out at 1; in the series on Fibroblast (replicate number 1), 0.93; in the series with Fibroblast (replicate number 2), 0.08; in the series on U2OS (replicate number 1), 0.68; with U2OS (replicate number 2), 0.74.

For the compound `CCCNC(=O)[C@H]1O[C@@H]1C(=O)N[C@H](C(=O)N1CCC[C@H]1C(=O)O)[C@@H](C)CC`, the “Growth Rate” value was found to be 0.63 in the series with HEK-293T (replicate number 1); 0.84 with HEK-293T (replicate number 2); 0.65 in the series with Fibroblast (replicate number 1); 1 in the series with Fibroblast (replicate number 2); 1 in the series on U2OS (replicate number 1).

As for `N=C(N)N/N=C/c1cccc(Cl)c1Cl`, the “Growth Rate” value in the series with HEK-293T (replicate number 1) amounted to 0.5; in the series on HEK-293T (replicate number 2), 0.8; with Fibroblast (replicate number 1) it was 0.46; in the series on Fibroblast (replicate number 2), 0.86; with U2OS (replicate number 1), 0.24; in the series with U2OS (replicate number 2) it was 0.53.
